Data as given in patent US20030153080A1, “Methods for improving conifer embryogenesis” (priority 2002, published 2003).

Legend:
Type in all cases: cell-based
[1] = tested on: loblolly pine megagametophytes; test: Zygotic initiation test with megagametophyte explants (extrusion and initiation); settings: for effect on extrusion and initiation efficiency: 0.1 mg/L alone (media 1357, 1359), compared with medium 1391; for early extrusion and embryo expansion: supplement present in the medium
Description: (§1) Megagametophyte explants were isolated for zygotic initiation tests from loblolly pine summer cones when embryos were at approximately stage 2-4. Seeds were collected from four individual trees of diverse genotypes. Extracted seeds were soaked in running water for 10 minutes, agitated in 10% liquinox supplemented with 2 drops of Tween 20/L (polyoxyethylene-sorbitan monolaurate) for 10 minutes, and rinsed with water for 30 minutes. Seeds were sterilized in a laminar flow hood by agitating in 20% hydrogen peroxide for 10 minutes and rinsing with sterile deionized water. The seed coats, integuments and nucellus were removed to isolate the megagametophytes. Culturing was performed in 24-well culture plates with each well having an approximate volume of 3.0 ml. Two milliliters of media were added into each well.
Zygotic and somatic initiation tests were conducted to determine the effect of alpha-ketoglutaric acid in combination with vitamins B12 and E on initiation. Explants of loblolly pine were obtained and treated as described in Example 1 with the following modifications. Each replication consisted of ten adjacent wells on a multiwell plate, with one megagametophyte per well. Ten replications, for a total of 100 seeds, were performed per treatment for each cone collection.
According to the protocol of Example 1, four loblolly pine cone collections of approximately 500 seeds per collection with embryos at stages 2-4 were selected. Seeds were sterilized and dissected. […] Average initiation across the cone collections was roughly 30% for embryos grown on the control medium and roughly 36% for embryos grown on the test medium.

[2] = tested on: loblolly pine somatic embryos; test: Single somatic embryo initiation test (colony diameter); settings: for Mean Colony Diameter: 0.1 mg/L added to medium 1253, measured at 4½ weeks
Description: (§2) For somatic initiation tests, embryos were selected from a liquid suspension culture supplemented with abscisic acid. (Table 1B, medium 16). Each replication consisted of ten adjacent wells on a multiwell plate, with a single stage 2, somatic embryo per well, providing two replications per multiwell plate. Four replications (for a total of 40 explants) were performed per treatment for each genotype. The plates were wrapped in Parafilme wrap to minimize evaporation and incubated at 22-24° C. in the dark for 4-6 weeks or until colony diameters were roughly ¾-1 cm. Typically, a single stage 2 embryo is approximately 0.1 mm in size. During this time period, the single embryo multiplies to form an embryogenic tissue mass of about 5-9 mm in diameter depending on the particular conifer, culture genotype, medium contents, and time. Changes in tissue diameters were used to assay the effects of vitamins or organic acid on early-stage embryo growth and multiplication. Colony diameters were measured using a dissecting scope ocular micrometer.
Osmolarity and pH of the culture media were monitored to ensure that these factors were similar throughout various conditions, and therefore, were not contributing to the observed differences. To analyze the results, the ANOVA statistical analysis was performed.
Single somatic embryo initiation tests were conducted to determine the effect of various vitamins on initiation. Embryos of loblolly pine were obtained and treated as described in Example 1. Isolated explants were incubated either in a control medium (Table 1A, medium 1253), or in the same medium supplemented with the K&M vitamin mixture (Table 1A, medium 1335). […] Evaluation of specific components of the K&M vitamin mixture lead to identification of the components responsible for the observed increase.
Single somatic embryo initiation tests were conducted to determine the effect of alpha-ketoglutaric acid on initiation in loblolly pine. Embryos of loblolly pine were obtained and treated as described in Example 1. The inventors note that a modification to the protocol detailed in Example 1 may be required due to the addition of an organic acid to the base medium. The addition of an acid, such as alpha-ketoglutaric acid, causes media pH to drop and therefore, all media supplemented with alpha-ketoglutaric acid were titrated to pH 5.7 before adding them to the cultures. Titration was performed with KOH, which increased potassium levels in the media by about 0.7 mM.
Single somatic embryo initiation tests were conducted according to the protocol described in Example 1. The inventors note that modification to the protocol detailed in Example 1 may be required due to the addition of an organic acid to the base medium. In culture medium containing 60.72 mg/L pyruvic acid (Table 1B, medium 1462) mean tissue diameter was 7.1 mm compared to a mean tissue diameter of 6.1 for embryos grown on the control medium 1253 indicating a positive correlation between embryo exposure to pyruvic acid and overall initiation. Iterations of this example in loblolly pine yielded similar percentage increases in initiation, e.g., a 7.2 mm mean tissue diameter for medium containing 0.52 mM pyruvic acid compared to 6.5 mm mean tissue diameter in the control medium. As shown herein, this effect is further enhanced by the combinations of multiple organic acids.

[3] = tested on: loblolly pine stage 2 somatic embryos; test: Somatic embryo capture test in multiplication medium (colony diameter)
Description: as §2
Tests were conducted to determine the effect on somatic embryo capture of a medium supplemented with individual organic acids, such as alpha-ketoglutaric acid. Embryos of loblolly pine were obtained and treated as described in Example 1. Individual stage 2 embryos were selected from liquid maintenance medium and placed in multiplication medium (Table 1B, medium 1250).
Embryos of loblolly pine were obtained and treated as described in Example 1. Individual stage 2 embryos were selected from liquid maintenance medium and placed in multiplication medium (Table 1B, medium 1250). Stage 2 embryos were likewise placed in medium 1250 supplemented with 60.7 mg/L pyruvic acid (Table 1C, medium 1635). All cultures were incubated in the dark at 24-26° C. for 4-5 weeks.
A representative example for somatic capture uses embryos of loblolly pine obtained and treated as described in Example 1. Individual stage 2 embryos were selected from liquid maintenance medium and placed in multiplication medium (Table 1B, medium 1250). Compared to this control, the addition of 0.1 mg/L vitamin B12 alone to the multiplication medium (Table 1B, medium 1250) increased mean colony diameter by approximately 5%. Likewise, the addition of 100 mg/L alpha-ketoglutaric acid alone to the […] (Table 1B, medium 1250) increased mean colony diameter by approximately 10%.
Individual stage 2 embryos were selected from liquid maintenance medium and placed in multiplication control medium (Table 1B, medium 1250), as well as medium 1638, which is supplemented with 0.1 mg/L vitamin B12, 0.1 mg/L vitamin E, 100 mg/L alpha-ketoglutaric acid and 60.7 mg/L pyruvic acid (Table 1C, medium 1638). […]

[4] = tested on: Douglas Fir zygotic embryos; test: Zygotic embryo initiation test
Description: as §1
Embryos of Douglas Fir were obtained, and treated as described in Example 1.
A further example is provided for Douglas Fir. Douglas Fir zygotic embryos were tested for improved initiation when exposed to cultures containing pyruvic acid according to the protocol described in Example 1. Control medium 121 (Table 1C) was supplemented with 60.7 mg/L pyruvic acid to create the test medium (Table 1C, medium 1625). After incubation for eight weeks in the dark, initiation was scored. For tissue exposed to pyruvic acid, mean initiation rates were approximately 35% compared to 32% for the untreated embryos.

[5] = tested on: Norway Spruce somatic embryos; test: Single somatic embryo initiation test (tissue diameter); settings: 60.7 mg/L (medium 1664); control medium 1662 gave 2.8 mm
Description: as §2
Tissue isolated and prepared according to Example 1 was incubated in a medium containing 0.1 mg/L of both vitamin B12 and E for 4-5 weeks in the dark at 24-26° C. (Table 1 D, medium 1665). Tissue cultured in medium 1665 achieved an average diameter of 3.1 mm compared to tissue cultured in the control medium, which achieved an average diameter of 2.8 mm. […]

vitamin B12 [reference compound]
effect on extrusion and initiation efficiency [1]: some, but a lesser effect
Mean Colony Diameter [2]: 4.88 mm
increase in mean colony diameter vs medium 1250 ([3]; 0.1 mg/L vitamin B12 alone): approximately 5%

vitamin E
effect on extrusion and initiation efficiency [1]: some, but a lesser effect
early extrusion and embryo expansion [1]: more robust
Mean Colony Diameter [2]: 4.65 mm

O=C(O)CCC(=O)C(=O)O [alpha-ketoglutaric acid]
early extrusion and embryo expansion [1]: more robust
levels of initiation higher than control as measured by mean colony diameter ([2]; 100 ppm (medium 1342) vs control medium 1253, titrated to pH 5.7): 20%
increase in mean colony diameter vs medium 1250 ([3]; 100 mg/L alpha-ketoglutaric acid alone): approximately 10%
increase in mean colony diameter ([3]; only additive to control medium 1250, between 100 and 200 mg/L): 5-6%
levels of initiation vs control medium 121 ([4]; 100 mg/L (medium 1624)): higher levels of initiation

CC(=O)C(=O)O [pyruvic acid]
mean diameters [5]: 3.6 mm
mean tissue diameter ([2]; 0.52 mM, iteration of the example, control medium gave 6.5 mm): 7.2 mm
mean tissue diameter ([2]; 60.72 mg/L (medium 1462), control medium 1253 gave 6.1): 7.1 mm
average diameter ([3]; 60.7 mg/L in medium 1250 (medium 1635), dark, 24-26° C., 4-5 weeks, control 3.3 mm): roughly 3.7 mm
mean initiation rates ([4]; 60.7 mg/L (medium 1625), eight weeks in the dark, untreated 32%): approximately 35%

Nc1ccc(C(=O)O)cc1 [p-aminobenzoic acid]
increase in mean colony diameter as compared to the control ([2]; 0.2 ppm (medium 1434) vs control medium 1253): 32%
initiation ([4]; 20 mg/L (medium 1627), base medium 121 gave 32%): 39%
